# Results taken from US6624140B1, “Synthetic peptides with antimicrobial and endotoxin neutralizing properties for management of the sepsis syndrome” (Academisch Ziekenhuis Bij de Universiteit van Amsterdam …, priority 1997, dated 2003).
# No end group written: not given here.
# How the values were obtained:
# TNF-α production = assay: TNF-α in whole blood ex vivo after pre-incubation of LPS with peptide; type: cell-based, human; conditions: 1 to 10 μg/ml pre-incubated with 1 ng/ml LPS, even at lowest concentration 1 μg/ml, 4 h at 37° C.
# Procedure: FIG. 11. Effect of pre-incubation of E. coli 0111:B4 LPS with synthetic peptides or Polymyxin B on TNF-α levels in whole blood ex vivo. The indicated amounts of synthetic, control peptides or PmB were pre-incubated with E. coli 0111:B4 LPS at 1 ng/ml for […] at 23° C., added to whole blood containing heparin at 2 I.U/ml and the TNF-α concentrations determined after incubation for 4 h at 37° C. Each value is the mean of triplicate experiments. Controls only contained LPS.
# In addition, the LPS-neutralizing activity of selected synthetic peptides of the invention were compared in a more complex environment of whole blood ex vivo to determine the effect of physiological concentrations of blood components such as plasma proteins, blood cells etc. on the detoxification efficacy. In pre-incubation experiments, concentrations of synthetic peptides, control peptide or PmB from 1 to 10 μg/ml were pre-incubated with 1 ng/ml E. coli 0111:B4 LPS in pyrogen-free saline for 30 min at 23° C., added to venous blood containing heparin at 2 I.U/ml as anti-coagulant and incubated for 4 h at 37° C. TNF-α concentrations were determined in appropriately diluted cell-free supernatants as described before.
# Staphylococcus aureus = assay: Bactericidal activity in liquid culture, S. aureus; type: cell-based; conditions: for % bacteria killed: 10^7 S. aureus bacteria/ml LB medium 37° C., concentration effective dose 3 (M^−6); for effect on cell-density of Gram-positive bacterial cultures: in words
# Procedure: FIGS. 1A and 1B. The effect of synthetic peptides on the survival of E. coli 0111:B4 (panel A) or S. aureus (panel B). Logarithmically growing bacterial cells at a density of 10^7 cells/ml in Luria-Bertani (LB) medium were incubated with synthetic peptides at concentrations of 3, 5 and 7 μg/ml (1, 2 and 3 μM) at 37° C. for 1 h and the residual cell density expressed as a percentage of the value obtained from bacterial cultures without added peptides.
# A peptide encompassing a selected LPS-binding domain from a well characterized human antiendotoxin protein, known as bactericidal/permeability increasing protein (BPI), from amino acids 85 to 102, denoted as BPI(85-102), was included for a direct comparison of the efficacy of the endotoxin-binding domain of a naturally occurring protein and the synthetic peptides of the invention. The amino acid sequence of the BPI(85-102) peptide is:
# The BPI(85-102) reference peptide was synthesized as previously described for peptides of the invention and provided with a C-terminal Cys residue for the purpose of biotinylation as previously described. […] Incubation of various concentrations of the synthetic peptides according to the invention for a limited time period on the survival of both types of bacteria again illustrated their potent anti-microbial activity as opposed to that of the BPI(85-102) peptide (FIG. 1) with the sequence corresponding to that of the potential LPS binding domain of the native BPI protein. This is indicative of a broad specificity of the synthetic peptides, in keeping with the general bactericidal properties of this class of linear amphipathic α-helical peptides. […] The B2 residue in the N-terminal repetitive sequence element in each instance, instead of an aromatic amino acid residue, as specified by the formula of the invention, was replaced with an Ala residue and the hydrophobic (C2)n element made hydrophilic by substitution with Lys and Cys residues.
# [1] = test system: IL-6 production by endotoxin; assay: IL-6 production in diluted whole blood, simultaneous addition of LPS and peptide; type: cell-based, human; conditions: LPS 1 ng/ml; concentrations as low as 1 μM; control even at 4-fold higher concentration; heparin 100 I.U/ml
# Procedure: FIG. 9. Effect of simultaneous addition of E. coli 0111:B4 LPS and synthetic peptides on IL-6 production in whole blood diluted 1 in 10. Synthetic peptides BP1 or BP2 or the control peptide BPI(85-102) at the concentrations indicated, were added together with E. coli 0111:B4 LPS at 1 ng/ml to diluted whole blood containing heparin at 100 I.U/ml. IL-6 concentration was determined after incubation for 16 h at 37° C. Each value is the mean of triplicate experiments. Controls contained no added peptide.
# The endotoxin neutralizing activities of the synthetic peptides of the invention were evaluated by investigating the effect on LPS-stimulated release of the pro-inflammatory cytokines, tumor necrosis factor alpha (TNF-α), interleukin-6 (IL-6) or interleukin-8 (IL-8) in a well characterized in vitro human whole blood bioassay system. In one series of experiments, dilutions of E. coli 0111:B4 LPS from 0.2 to 1 ng/ml were pre-incubated with synthetic peptides at 10 μg/ml concentrations in RPMI medium for 30 min at 20° C. and added to diluted whole blood. Cytokine concentrations in the supernatants were determined after further incubation for 16 h at 37° C. in the presence of 5% CO2 by specific and sensitive ELISA kits (CLB, Amsterdam, The Netherlands). In another series of experiments, the effects of synthetic peptides at concentrations of 2,5, 5 and 10 μg/ml on IL-6 induction by 1 ng/ml 0111:B4 LPS was examined after simultaneous addition of synthetic peptide and LPS to diluted whole blood. […] The control peptide BPI(85-102) was ineffective in reducing cytokine production under these conditions even at a 4-fold higher concentration. This probably reflects the differences in binding affinity for Lipid A of BP1 and BP2 compared with the BPI(85-102) peptide of approximately 5 and 10-fold, respectively. An additional factor which may have influenced binding of the control peptide to endotoxin is the presence of heparin employed as an anti-coagulant at a concentration of 100 I.U/ml in the assay system. […]
substance,measurement,setting,value
GRLRKKWKAFKKFLKILAC [BP1],inhibition of TNF-α production,TNF-α production,almost complete inhibition
same,% bacteria killed,Staphylococcus aureus,34%
same,effect on cell-density of Gram-positive bacterial cultures,Staphylococcus aureus,dose-dependent reduction
same,inhibition of IL-6 production,[1],completely inhibiting
"Ile-Lys-Ile-Ser-Gly-Lys-Trp-Lys-Ala-Gin-Lys-Arg-Phe-Leu-Lys-Met-Ser-Gly-(Cys) (IKISGKWKAQKRFLKMSGC; listed as Homo sapiens) [BPI(85-102), reference compound]",inhibition of TNF-α production,TNF-α production,almost complete inhibition
same,% bacteria killed,Staphylococcus aureus,0%
same,effect on cell-density of Gram-positive bacterial cultures,Staphylococcus aureus,no effect
same,inhibition of IL-6 production,[1],ineffective
"GKWKLFKKAFKKFLKILAC-OH [BP2, Gly-Lys-Trp-Lys-Leu-Phe-Lys-Lys-Ala-Phe-Lys-Lys-Phe-Leu-Lys-Ile-Leu-Ala-Cys]",inhibition of TNF-α production,TNF-α production,almost complete inhibition
same,effect on cell-density of Gram-positive bacterial cultures,Staphylococcus aureus,dose-dependent reduction
same,inhibition of IL-6 production,[1],completely inhibiting
